From US9469597B2, “(Hetero)aryl cyclopropylamine compounds as LSD1 inhibitors” (ORYZON GENOMICS, S.A., priority 2011, dated 2016) come the findings set out here.

Where a name gives a salt, the structure may show the parent alone.

In test [1] the target is Human recombinant monoamine oxidase MAO-A (Homo sapiens (Human), UniProt P21397). Put plainly: Monoamine oxidase assay (kynuramine to 4-hydroxyquinoline fluorescence), MAO-A. It counts as biochemical. The following applies: for IC50: Table 2; for Ki: Table 1, term Ki value used as designation for the IC50 value. From the text: (§1) Human recombinant monoamine oxidase proteins MAO-A and MAO-B were purchased from Sigma Aldrich. MAOs catalyze the oxidative deamination of primary, secondary and tertiary amines. In order to monitor MAO enzymatic activities and/or their inhibition rate by inhibitor(s) of interest, a fluorescence-based (inhibitor)-screening assay was set up. 3-(2-Aminophenyl)-3-oxopropanamine (kynuramine dihydrobromide, Sigma Aldrich), a non fluorescent compound was chosen as a substrate. Kynuramine is a non-specific substrate for both MAO-A and MAO-B activities. While undergoing oxidative deamination by MAO activities, kynuramine is converted into 4-hydroxyquinoline (4-HQ), a resulting fluorescent product.
(§2) The monoamine oxidase activity was estimated by measuring the conversion of kynuramine into 4-hydroxyquinoline. Assays were conducted in 96-well black plates with clear bottom (Corning) in a final volume of 100 μL. The assay buffer was 100 mM HEPES, pH 7.5. Each experiment was performed in duplicate within the same experiment.
Clorgyline and Deprenyl (Sigma Aldrich) was used as a control for specific inhibition of MAO-A and MAO-B respectively.
After leaving the enzyme(s) interacting with the inhibitor, KM of kynuramine was added to each reaction for MAO-B and MAO-A assay respectively, and the reaction was left for 1 hour at 37° C. in the dark. The oxidative deamination of the substrate was stopped by adding 50 μL of NaOH 2N.
(§3) The IC50 values of each inhibitor were calculated with GraphPad Prism Software.

The target in test [2] is Human recombinant monoamine oxidase MAO-B (Homo sapiens (Human), UniProt P27338). Put plainly: Monoamine oxidase assay (kynuramine to 4-hydroxyquinoline fluorescence), MAO-B. The format is biochemical. Particulars: Table 2.
Text: as §1, §2
Clorgyline and Deprenyl (Sigma Aldrich) was used as a control for specific inhibition of MAO-A and MAO-B respectively. […]
as §3

In a further test the test system is THP-1 cells. Briefly: Induction of differentiation of THP-1 leukemia cells (CD11b membrane expression, flow cytometry). The format is cell-based, human. The following applies: at 100 nM, 96 h treatment. On the procedure:
By analyzing the induction of CD11b membrane expression on THP-1 cells we are assessing the ability of LSD1 inhibitors to induce terminal monocytic differentiation of a MLL-AF9 AML cell line. […] They carry t(9;11)(p21;q23) leading to MLL-MLLT3 (MLL-AF9) fusion gene. This cell line can undergo monocytic differentiation upon treatment with the appropriate stimulus. […] In this assay, 150,000 THP-1 cells were seeded in 1 ml of complete culture medium in 6-well tissue culture plates. […] Cells were kept in the presence of test compound for 96 h at a 5% CO2 atmosphere at 37° C. After this treatment period, cells were harvested, washed twice with PBS buffer and placed in a V-bottom 96-well plate. Each treated sample was split in two. […] Percentage of CD11b positive cells, as an indicator of monocytic differentiation, was determined compared to isotype control antibody stained cells. EC50 values were calculated by non-linear regression analysis.
Background: In flow cytometry, cells or beads pass a laser one at a time.

Human recombinant monoamine oxidase MAO-A, sequence (P21397 whole entry): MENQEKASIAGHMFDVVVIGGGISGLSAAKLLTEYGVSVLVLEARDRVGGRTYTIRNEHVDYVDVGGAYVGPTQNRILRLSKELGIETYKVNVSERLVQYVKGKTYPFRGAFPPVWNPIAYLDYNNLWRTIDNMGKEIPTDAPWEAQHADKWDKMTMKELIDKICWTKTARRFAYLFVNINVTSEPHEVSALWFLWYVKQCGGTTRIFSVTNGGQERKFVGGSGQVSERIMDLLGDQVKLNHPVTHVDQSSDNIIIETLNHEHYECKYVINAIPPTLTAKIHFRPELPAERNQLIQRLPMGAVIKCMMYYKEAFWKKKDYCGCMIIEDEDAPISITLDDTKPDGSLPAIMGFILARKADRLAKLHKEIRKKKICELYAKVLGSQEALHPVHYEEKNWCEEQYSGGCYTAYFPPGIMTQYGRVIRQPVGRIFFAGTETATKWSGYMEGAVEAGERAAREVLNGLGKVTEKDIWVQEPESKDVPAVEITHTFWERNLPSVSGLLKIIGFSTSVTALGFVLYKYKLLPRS

With `N[C@H]1CC[C@H](N[C@@H]2C[C@H]2c2ccccc2)CC1` [Example 5, (trans)-N1-((1R,2S)-2-phenylcyclopropyl)cyclohexane-1,4-diamine hydrochloride], the concentration for half-maximal inhibition (IC50) (commonly the point on the concentration scale where inhibition reaches its midpoint) in test [1] was over 100 µM.
In the case of `COc1ccc(NS(C)(=O)=O)cc1-c1ccc([C@H]2C[C@@H]2NC2CCC(N)CC2)cc1` (relative stereo) [Example 48, N-(4′-((trans)-2-((4-aminocyclohexyl)amino)cyclopropyl)-6-methoxy-[1,1′-biphenyl]-3-yl)methanesulfonamide], the IC50 in test [2] was […].
With `NC1CCC(N[C@H]2C[C@@H]2c2ccccc2)CC1` (mixture of isomers) [Example 1, N1-((trans)-2-phenylcyclopropyl)cyclohexane-1,4-diamine dihydrochloride], in test [1], the Ki (as a rule, a measure of affinity in units of concentration, obtained from inhibition or displacement) was over 40 µM and the IC50 is over 100 µM.
`NC1CCC(N[C@@H]2C[C@@H]2c2ccccc2)CC1` (relative stereo) [Example 21, N1-((cis)-2-phenylcyclopropyl)cyclohexane-1,4-diamine]: in test [1], the 50% inhibitory concentration (IC50) worked out at 5.23 µM.
On to `Cl.N[C@H]1CC[C@H](N[C@H]2C[C@@H]2c2ccccc2)CC1` [Example 3, (trans)-N1-((1S,2R)-2-phenylcyclopropyl)cyclohexane-1,4-diamine hydrochloride], for which, in the test with THP-1 cells, the “CD11b+ cells” value was 13% CD11b+ cells at 100 nM. In addition, in test [1], the inhibitory constant (Ki) is over 40 µM and the IC50 was over 100 µM.
For the compound `N[C@H]1CC[C@@H](N[C@H]2C[C@@H]2c2ccccc2)CC1` [Example 2, (cis)-N1-((1S,2R)-2-phenylcyclopropyl)cyclohexane-1,4-diamine hydrochloride], in test [1], the Ki is over 40 µM and the concentration for half-maximal inhibition (IC50) is over 100 µM.
Taken in the same sequence, the figures for `N[C@H]1CC[C@@H](N[C@@H]2C[C@H]2c2ccccc2)CC1` [Example 4, (cis)-N1-((1R,2S)-2-phenylcyclopropyl)cyclohexane-1,4-diamine hydrochloride] were over 40 µM and over 100 µM.
